Assay results reported in EP0419844B1, “N-hydroxy-dibenz[b,e]oxepin-alkylamines and -alkanoic acid amides, related heterocyclic analogues, a process for their preparation and their use in the manufacture of medicaments” (HOECHST-ROUSSEL PHARMACEUTICALS INCORPORATED, priority 1989, dated 1991).

Key:
[1] = system: phenyl-para-quinone induced writhing; test: Phenyl-para-benzoquinone writhing assay (analgesia); format: in vivo; conditions: Mus musculus, mice; for ED50: sc, subcutaneous dose at which 50% of the phenyl-para-quinone induced writhing is inhibited, read-out: ED₅₀
Excerpt: The compounds of the present invention are also useful as analgesic agents due to this ability to alleviate pain in mammals. […] Exptl. Biol. Med., 95, 729 (1957)].
The analgesic activity of some of the compounds expressed as either the subcutaneous dose at which 50% of the phenyl-para-quinone induced writhing is inhibited in the animals, i.e., the ED₅₀ value, or as the % decrease in writhing at a given dose is presented in Table 2.

[2] = system: naja naja (snake venom) phospholipase A₂(PLA₂)-induced paw edema; test: Phospholipase A2-Induced Paw Edema (PIPE); format: in vivo, male Wistar rats; conditions: for ED₅₀: standards of the PIPE assay, PLA2-induced rat paw edema; for PIPE 0.1 M: 0.1 M test compound injected with PLA2 (3 units/paw) in the subplantar region of the rat left hindpaw, paw displacement at two hours
Method: Phospholipase A₂-Induced Paw Edema (PIPE)
The ability of compounds to reverse naja naja (snake venom) phospholipase A₂(PLA₂)-induced paw edema in male Wistar rats (100-125 gm) was measured. PLA₂ (3 units/100 »l dH₂O/paw) alone or with 0.1 M of the test compound was injected in the sulplantar region of the rat left hindpaw. Immediatly following injection and at two hours post administration, the paw was immersed in a mercury bath, and paw displacement was measured on a recorder via a transducer. The value was then converted to […]. (Standards: Quinacrine ED₅₀ = 0.1 M; Hydrocortisone ED₅₀= 0.46 M). Giessler, A.J. et al., "Agents and Action", Vol. 10, "Trends in Inflammation Research" (1981), p. 195.

TPA-induced ear edema = test: TPA-Induced Ear Edema (TPAEE); format: in vivo, female Swiss Webster mice; conditions: for TPAEE 10 »g/ear: 10 »g/ear compound topical with 10 »g TPA, ear plug weight after about 5 hours, mean percent change versus control
Method: TPA-Induced Ear Edema (TPAEE)
In the TPA-induced ear edema assay, TPA (12-0-tetradecanoyl-phorbol-13-acetate) is dissolved in 30/70 propylene glycol/ethanol and is applied to the right ear of groups of 6 female Swiss Webster mice at a volume of 20 »l so that a total of 10 »g of TPA is delivered to the inner and outer surfaces of the ear. The mice were housed together in a cage under standard conditions for 1 week prior to use with food and water ad lib. The test compound is dissolved in the vehicle and is applied to the right ear (the inner and outer surfaces) at a volume of 20 »l so that a total of 10 »g of the compound is delivered to the ear. After about 5 hours, the animals are sacrificed and a 4 mm diameter plug is taken from each ear and weighed. The difference between the right and left ear plug weights for each animal was determined. The antiinflammatory activity of the test compound is expressed as the mean percent change in ear plug weight of the treated animals compared to the mean percent change in the plug weight of the control animals. (Standard: Indomethacin: -86% at 1 mg/ear). Young, J.M. et al., J. Invest. Dermatol., 80 (1983), pp. 48-52.

[3] = system: arachidonic acid-induced ear edema; test: Arachidonic Acid-Induced Mouse Ear Edema (AAEE); format: in vivo, female Swiss Webster mice; conditions: 1 mg/ear topical, 30 minutes before arachidonic acid 4 mg/ear; ear plug weight one hour later, relative to control
Method: Arachidonic Acid-Induced Mouse Ear Edema (AAEE)
In the arachidonic acid-induced ear edema assay, the test compound is dissolved in 30/70 propylene glycol/ethanol and is applied to both ears of groups of 6 female Swiss Webster mice at a volume of 20 »l so that a total of 1.0 mg of test compound as delivered to each ear over the inner and outer surfaces. The mice were housed together in a cage under standard conditions for 1 week prior to use with food and water ad lib. The same volume (20 »l) of vehicle is applied to each ear of a control group of mice. After 30 minutes, arachidonic acid is applied to the right ear of each mouse of each group in the amount of 4 mg/ear. Vehicle is applied to the left ear of each mouse of each group at a volume of 20 »l/ear. After an additional hour, the mice are sacrificed and a 4mm plug is taken from each ear and weighed. The difference between the right and left ear plugs was determined for each animal. The antiinflammatory activity of the test compound is expressed as the mean percent change in the ear plug weight of the treated animals relative to the mean percent change in weights of control animals' ear. (Standard: Indomethacin -90% at 1 mg/ear). Young, J.M. et al., Invest. Dermatol., 80, (1983), pp. 48-52.

SMILES | AAEE % Change @ 1 mg/ear [3] [%] | TPAEE 10 »g/ear (TPA-induced ear edema) | PIPE 0.1 M [2] | other results
O=C1c2ccccc2COc2ccc(CCC(=O)N(O)C3CCCCC3)cc21 [3-(6,11-Dihydro-11-oxodibenz[b,e]oxepin-2-yl)-N-cyclohexyl-N-hydroxypropanamide] | – | – | – | inhibition at 20 mg/kg [1]: 76%
C[C@]12CCC(=O)C=C1CC[C@@H]1[C@@H]2[C@@H](O)C[C@@]2(C)[C@H]1CC[C@]2(O)C(=O)CO [Hydrocortisone, reference compound] | – | – | – | ED₅₀ [2]: 0.46 M
CCN(CC)CCCC(C)Nc1c2ccc(Cl)cc2nc2ccc(OC)cc12 (centres unmarked) [Quinacrine, reference compound] | – | – | – | ED₅₀ [2]: 0.1 M
COc1ccc2c(c1)c(CC(=O)O)c(C)n2C(=O)c1ccc(Cl)cc1 [Indomethacin, reference compound] | -90 | – | – | TPAEE percent change in ear plug weight (TPA-induced ear edema; standard, at 1 mg/ear): -86%
CCN(O)C(=O)C(C)c1ccc2c(c1)C(=O)c1ccccc1CO2 (centres unmarked) [2-(6,11-Dihydro-11-oxodibenz[b,e,]oxepin-2-yl]-N-ethyl-N-hydroxypropanamide] | – | – | – | ED50 [1]: 3.6 mg/kg
CCC(=O)O[C@](Cc1ccccc1)(c1ccccc1)[C@H](C)CN(C)C [Propoxyphene, reference compound] | – | – | – | ED50 [1]: 3.9 mg/kg
O=C1c2ccccc2COc2ccc(CC(=O)N(O)C3CCCCC3)cc21 [N-Cyclohexyl-2-(6,11-dihydro-11-oxodibenz[b,e]oxepin-2-yl)-N-hydroxyacetamide] | -29 | -52 | -85 | inhibition at 20 mg/kg [1]: 68%
CN(O)CCc1ccc2c(c1)C(=O)c1ccccc1CO2 [2-(6,11-Dihydro-11-oxodibenz[b,e]oxepin-2-yl)-N-hydroxy-N-methyl-ethylamine] | -46 | -50 | -70 | –
CN(O)C(=O)CCc1ccc2c(c1)C(=O)c1ccccc1CO2 [3-(6,11-Dihydro-11-oxodibenz[b,e]oxepin-2-yl)-N-hydroxy-N-methylpropanamide] | -63 | -71 | -46 | –
